Assay: xn = mol fraction of the nth substance listed
Conditions: Liquid, Vibrating tube method

CCCCCCCCCC [decane] + COC(=O)OC
mass density [kg/m3]
Conditions | 100 kPa | 10000 kPa | 20000 kPa | 30000 kPa | 40000 kPa
288.15 K, x2 = 0.0676 | 741.97 | 749.1 | 755.73 | 761.88 | 767.71
288.15 K, x2 = 0.2303 | 767.95 | 775.45 | 782.4 | 788.87 | 794.93
288.15 K, x2 = 0.2934 | 780.23 | 787.82 | 794.87 | 801.43 | 807.54
288.15 K, x2 = 0.4055 | 804.52 | 812.34 | 819.59 | 826.32 | 832.65
288.15 K, x2 = 0.502 | 829.72 | 837.73 | 844.78 | – | –
288.15 K, x2 = 0.5476 | 843.28 | 851.4 | – | – | –
288.15 K, x2 = 0.665 | 883.8 | – | – | – | –
288.15 K, x2 = 0.7101 | 901.71 | – | – | – | –
288.15 K, x2 = 0.9062 | 1004.68 | 1013.19 | 1021.19 | 1028.63 | 1035.61
293.15 K, x2 = 0.0676 | 738.16 | 745.45 | 752.25 | 758.56 | 764.48
293.15 K, x2 = 0.2303 | 763.84 | 771.54 | 778.69 | 785.31 | 791.49
293.15 K, x2 = 0.2934 | 775.99 | 783.79 | 791.01 | 797.71 | 803.97
293.15 K, x2 = 0.4055 | 799.94 | 807.99 | 815.46 | 822.34 | 828.8
293.15 K, x2 = 0.502 | 824.83 | 833.07 | 840.72 | 847.8 | 854.44
293.15 K, x2 = 0.5476 | 838.17 | 846.56 | 854.35 | 861.57 | 868.38
293.15 K, x2 = 0.5883 | 851.08 | 859.46 | 867.28 | 874.53 | –
293.15 K, x2 = 0.665 | 878.01 | 886.63 | 894.64 | 902.11 | –
293.15 K, x2 = 0.7101 | 896.39 | 905.11 | 913.24 | 920.82 | –
293.15 K, x2 = 0.7993 | 936.74 | 945.44 | 953.46 | – | –
293.15 K, x2 = 0.9062 | 998.35 | 1007.19 | 1015.43 | 1023.08 | 1030.28
298.15 K, x2 = 0.0676 | 734.31 | 741.8 | 748.75 | 755.23 | 761.28
298.15 K, x2 = 0.2303 | 759.7 | 767.62 | 774.95 | 781.73 | 788.05
298.15 K, x2 = 0.2934 | 771.64 | 779.68 | 787.1 | – | 800.4
298.15 K, x2 = 0.4055 | 795.37 | 803.65 | 811.3 | 818.38 | 825
298.15 K, x2 = 0.502 | 819.95 | 828.44 | 836.29 | 843.57 | 850.35
298.15 K, x2 = 0.5476 | 833.19 | 841.77 | 849.77 | 857.18 | 864.11
298.15 K, x2 = 0.5883 | 845.93 | 854.59 | 862.62 | 870.04 | 876.98
298.15 K, x2 = 0.665 | 872.69 | 881.52 | 889.73 | 897.31 | 904.39
298.15 K, x2 = 0.7101 | 890.82 | 899.75 | 908.1 | 915.87 | 923.09
298.15 K, x2 = 0.7993 | 930.88 | 939.91 | 948.28 | 956.06 | –
298.15 K, x2 = 0.9062 | 992.18 | 1001.24 | 1009.74 | 1017.62 | 1025.01
303.15 K, x2 = 0.0676 | 730.48 | 738.15 | 745.3 | 751.9 | 758.05
303.15 K, x2 = 0.2303 | 755.57 | 763.68 | 771.21 | 778.15 | 784.61
303.15 K, x2 = 0.2934 | 767.36 | 775.58 | 783.23 | 790.27 | 796.82
303.15 K, x2 = 0.4055 | 790.78 | 799.32 | 807.2 | 814.45 | 821.19
303.15 K, x2 = 0.502 | 815.09 | 823.86 | 831.94 | 839.39 | 846.29
303.15 K, x2 = 0.5476 | 828.19 | 837.03 | 845.25 | 852.82 | 859.91
303.15 K, x2 = 0.5883 | 840.82 | 849.74 | 858.02 | 865.63 | 872.72
303.15 K, x2 = 0.665 | 867.33 | 876.43 | 884.86 | 892.63 | 899.87
303.15 K, x2 = 0.7101 | 885.21 | 894.46 | 903.07 | 911.02 | 918.42
303.15 K, x2 = 0.7993 | 925.09 | 934.41 | 943.03 | 951.01 | 958.41
303.15 K, x2 = 0.9062 | 985.93 | 995.33 | 1004.09 | 1012.2 | 1019.78
308.15 K, x2 = 0.0676 | 726.53 | 734.45 | 741.78 | – | –
308.15 K, x2 = 0.2303 | 751.35 | 759.73 | 767.45 | – | –
308.15 K, x2 = 0.2934 | 763 | 771.51 | 779.37 | – | –
308.15 K, x2 = 0.4055 | 786.2 | 794.99 | 803.1 | – | –
308.15 K, x2 = 0.502 | 810.29 | 819.3 | – | – | –
308.15 K, x2 = 0.5476 | 823.17 | 832.33 | – | – | –
308.15 K, x2 = 0.5883 | 835.71 | 844.95 | – | – | –
308.15 K, x2 = 0.665 | 861.96 | 871.37 | – | – | –
308.15 K, x2 = 0.7101 | 879.57 | 889.19 | – | – | –
308.15 K, x2 = 0.7993 | 919.3 | 928.93 | – | – | –
308.15 K, x2 = 0.9062 | 979.75 | 989.47 | – | – | –
